Assay results reported in patent US7378417B2, “Pyrazolo-pyrimidine derivatives” (Hoffmann-La Roche Inc., priority 2004, dated 2008).

How the values were obtained:
rat mGlu2 receptor = target: T1, rat mGlu2 receptor (Rattus norvegicus, UniProt P31421); assay: [3H]-LY354740 binding on mGlu2 transfected CHO cell membranes; settings: displacement of 10 nM [3H]-LY354740, CHO cell membranes, room temperature, 1 hour
T1 construct: expressed in transfected cells; host or cells: CHO cells, stably transfected with pcD1mGR2 (G-418 selection); membranes used
Description: [^3H]-LY354740 Binding on mGlu2 Transfected CHO Cell Membranes. Transfection and Cell Culture
cDNA encoding the rat mGlu2 receptor protein in pBluescript II was subcloned into the eukaryotic expression vector pcDNA I-amp from Invitrogen Ltd (Paisley, UK). This vector construct (pcD1mGR2) was co-transfected with a psvNeo plasmid encoding the gene for neomycin resistance, into CHO cells by a modified calcium phosphate method described by Chen & Okayama (1988). The cells were maintained in Dulbecco's Modified Eagle medium with reduced L-glutamine (2 mM final concentration) and 10% dialysed foetal calf serum from Gibco-Invitrogen (Carlsbad, Calif., USA). Selection was made in the presence of G-418 (1000 ug/ml final) and […]. Clones were identified by reverse transcription of 5 μg total RNA, followed by PCR using mGlu2 receptor specific primers 5′-[…]-3′ and 5′-[…]-3′ in 60 mM Tris HCl (pH 10), 15 mM (NH4)2SO4, 2 mM MgCl2, 25 units/ml Taq Polymerase with 30 cycles annealing at 60° C. for 1 min., extention at 72° C. for 30 s, and 1 min. 95° C. denaturation.
Cells, cultured as above, were harvested and washed three times with cold PBS and frozen at −80° C. The pellet was resuspended in cold 20 mM HEPES-NaOH buffer containing 10 mM EDTA (pH 7.4), and homogenised with a polytron (Kinematica, AG, Littau, Switzerland) for 10 s at 10 000 rpm. After centrifugation for 30 min. at 4° C., the pellet was washed once with the same buffer, and once with cold 20 mM HEPES-NaOH buffer containing 0.1 mM EDTA, (pH 7.4). Protein content was measured using the micro BCA method from Pierce-Perbio (Rockford, Ill., USA) using bovine serum albumin as standard.
After thawing, the membranes were resuspended in cold 50 mM Tris-HCl buffer containing 2 mM MgCl2 (pH 7) (binding buffer). The final concentration of the membranes in the assays was 25 μg protein/ml. Inhibition experiments were performed with membranes incubated with 10 nM [^3H]-LY354740 at room temperature, for 1 hour, in presence of various concentrations of the compound to be tested. Following the incubations, membranes were filtered onto Whatmann GF/B glass fiber filters and washed 5 times with cold binding buffer. Non specific binding was measured in the presence of 10 μM DCG IV. After transfer of the filters into plastic vials containing 10 ml of Ultima-gold scintillation fluid from Perkin-Elmer (Boston, Mass., USA), the radioactivity was measured by liquid scintillation in a Tri-Carb 2500 TR counter (Packard, Zürich, Switzerland).
The inhibition curves were fitted with a four parameter logistic equation giving IC50 values, and Hill coefficients.

T1 sequence (P31421 19-872): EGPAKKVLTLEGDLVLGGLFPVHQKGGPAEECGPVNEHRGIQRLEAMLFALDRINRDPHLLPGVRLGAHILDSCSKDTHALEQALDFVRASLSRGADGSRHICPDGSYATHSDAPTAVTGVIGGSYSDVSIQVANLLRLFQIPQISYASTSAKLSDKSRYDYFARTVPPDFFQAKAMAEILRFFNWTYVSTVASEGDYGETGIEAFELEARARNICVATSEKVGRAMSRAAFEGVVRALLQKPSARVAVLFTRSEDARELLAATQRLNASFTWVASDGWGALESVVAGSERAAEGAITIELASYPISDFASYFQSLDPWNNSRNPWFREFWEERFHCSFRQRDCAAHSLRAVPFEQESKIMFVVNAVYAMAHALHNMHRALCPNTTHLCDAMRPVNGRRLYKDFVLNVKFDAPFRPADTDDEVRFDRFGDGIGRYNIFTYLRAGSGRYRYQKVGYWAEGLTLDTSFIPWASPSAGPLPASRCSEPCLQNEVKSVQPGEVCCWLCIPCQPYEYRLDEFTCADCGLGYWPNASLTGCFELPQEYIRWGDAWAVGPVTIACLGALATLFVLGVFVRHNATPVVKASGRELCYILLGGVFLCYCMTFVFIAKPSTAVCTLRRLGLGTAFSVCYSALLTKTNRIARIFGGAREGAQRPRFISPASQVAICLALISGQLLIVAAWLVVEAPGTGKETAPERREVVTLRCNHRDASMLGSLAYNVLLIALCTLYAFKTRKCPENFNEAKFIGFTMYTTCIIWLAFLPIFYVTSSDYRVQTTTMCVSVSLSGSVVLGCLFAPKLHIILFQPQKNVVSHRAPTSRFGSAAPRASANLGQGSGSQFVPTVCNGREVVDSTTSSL

Compound	melting point [°C]	Ki (rat mGlu2 receptor) [nM]
O=C(Nc1cccc(S(=O)(=O)N2CCOCC2)c1)c1cnn2c(C(F)(F)F)cc(-c3ccc(C(F)(F)F)cc3)nc12 [Example 1, 7-Trifluoromethyl-5-(4-trifluoromethyl-phenyl)-pyrazolo[1,5-a]pyrimidine-3-carboxylic acid[3-(morpholine-4-sulfonyl)-phenyl]-amide]	233	30
O=C(Nc1cccc(S(=O)(=O)NCC(F)(F)F)c1)c1cnn2c(C(F)F)cc(-c3ccc(C(F)(F)F)cc3)nc12 [Example 52, 7-Difluoromethyl-5-(4-trifluoromethyl-phenyl)-pyrazolo[1,5-a]pyrimidine-3-carboxylic acid [3-(2,2,2-trifluoro-ethylsulfamoyl)-phenyl]-amide]	257	
O=C(Nc1cccc(S(=O)(=O)NCC2CC2)c1)c1cnn2c(C(F)F)cc(-c3ccc(C(F)(F)F)cc3)nc12 [Example 73, 7-Difluoromethyl-5-(4-trifluoromethyl-phenyl)-pyrazolo[1,5-a]pyrimidine-3-carboxylic acid [3-(cyclopropylmethyl-sulfamoyl)-phenyl]-amide]	238	
O=C(Nc1cccc(S(=O)(=O)Nc2ccccc2)c1)c1cnn2c(C(F)F)cc(-c3ccc(C(F)(F)F)cc3)nc12 [Example 74, 7-Difluoromethyl-5-(4-trifluoromethyl-phenyl)-pyrazolo[1,5-a]pyrimidine-3-carboxylic acid(3-phenylsulfamoyl-phenyl)-amide]	228	67
NS(=O)(=O)c1cccc(NC(=O)c2cnn3c(C(F)F)cc(-c4ccc(C(F)(F)F)c(OCC(F)(F)F)c4)nc23)c1 [Example 79, 7-Difluoromethyl-5-[3-(2,2,2-trifluoro-ethoxy)-4-trifluoromethyl-phenyl]-pyrazolo[1,5-a]pyrimidine-3-carboxylic acid(3-sulfamoyl-phenyl)-amide]	241	11
O=C(Nc1cccc(S(=O)(=O)NCCO)c1)c1cnn2c(C(F)F)cc(-c3ccc(C(F)(F)F)cc3)nc12 [Example 83, 7-Difluoromethyl-5-(4-trifluoromethyl-phenyl)-pyrazolo[1,5-a]pyrimidine-3-carboxylic acid [3-(2-hydroxy-ethylsulfamoyl)-phenyl]-amide]	231	
O=C(Nc1cccc(S(=O)(=O)NCc2ccncc2)c1)c1cnn2c(C(F)F)cc(-c3ccc(C(F)(F)F)cc3)nc12 [Example 88, 7-Difluoromethyl-5-(4-trifluoromethyl-phenyl)-pyrazolo[1,5-a]pyrimidine-3-carboxylic acid {3-[(pyridin-4-ylmethyl)-sulfamoyl]-phenyl}-amide]	221	15
O=C(Nc1cccc(S(=O)(=O)CCO)c1)c1cnn2c(C(F)F)cc(-c3ccc(C(F)(F)F)cc3)nc12 [Example 90, 7-Difluoromethyl-5-(4-trifluoromethyl-phenyl)-pyrazolo[1,5-a]pyrimidine-3-carboxylic acid [3-(2-hydroxy-ethanesulfonyl)-phenyl]-amide]	205	
O=C(Nc1cccc(S(=O)(=O)NCc2cccnc2)c1)c1cnn2c(C(F)F)cc(-c3ccc(C(F)(F)F)cc3)nc12 [Example 106, 7-Difluoromethyl-5-(4-trifluoromethyl-phenyl)-pyrazolo[1,5-a]pyrimidine-3-carboxylic acid {3-[(pyridin-3-ylmethyl)-sulfamoyl]-phenyl}-amide]	256	
CN(C)CCNS(=O)(=O)c1cccc(NC(=O)c2cnn3c(C(F)F)cc(-c4ccc(C(F)(F)F)cc4)nc23)c1 [Example 144, 7-Difluoromethyl-5-(4-trifluoromethyl-phenyl)-pyrazolo[1,5-a]pyrimidine-3-carboxylic acid[3-(2-dimethylamino-ethylsulfamoyl)-phenyl]-amide]	184	7
